Consider 8 molecules from patent publication US20260144788A1, “COMPOUND FOR SHP2 PROTEIN DEGRADATION AND MEDICAL USES THEREOF” (UBIX THERAPEUTICS, INC., priority 2022, published 2026).

The target of the assay is T1, SHP2 protein (Homo sapiens, UniProt Q06124).
T1 sequence (Q06124 1-593): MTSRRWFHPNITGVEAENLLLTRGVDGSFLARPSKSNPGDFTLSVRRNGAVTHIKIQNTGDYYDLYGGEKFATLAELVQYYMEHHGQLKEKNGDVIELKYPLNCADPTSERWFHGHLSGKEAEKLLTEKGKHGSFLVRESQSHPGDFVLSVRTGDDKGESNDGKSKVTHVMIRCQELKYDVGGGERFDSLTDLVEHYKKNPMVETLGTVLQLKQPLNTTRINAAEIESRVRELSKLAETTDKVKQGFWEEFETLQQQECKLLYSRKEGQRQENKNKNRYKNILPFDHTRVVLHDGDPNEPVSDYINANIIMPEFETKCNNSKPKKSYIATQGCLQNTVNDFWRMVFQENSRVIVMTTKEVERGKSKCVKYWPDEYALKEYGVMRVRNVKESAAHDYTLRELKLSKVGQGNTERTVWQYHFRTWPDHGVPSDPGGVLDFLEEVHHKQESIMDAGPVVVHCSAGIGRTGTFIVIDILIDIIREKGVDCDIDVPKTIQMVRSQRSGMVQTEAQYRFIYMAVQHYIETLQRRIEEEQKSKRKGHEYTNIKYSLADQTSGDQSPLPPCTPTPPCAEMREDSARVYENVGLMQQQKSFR
In words: Measurement of SHP2 protein degradation in MV-4-11 cells (western blotting). The assay is classed as cell-based. The arrangement: endogenous in cells. The following applies: harvested after 24 hours. As for the experimental part: MV-4-11 cells were treated with the synthesized Example compounds, and the amount of SHP2 protein present in the cells was measured using western blotting detection. The protocol for the experiment conducted using MV-4-11 cells is as follows.
[Culture] MV-4-11 cells were resuspended in IMDM MEDIUM (Hyclone, SH30228.01), 5% FBS (Hyclone, SV30207.02), 1% Penicillin-streptomycin (Welgene, LS 202-02) media and seeded at 1×10^6/mL in 12-well plates (1 mL each).
[Compound treatment]12-well plates were treated as follows. 10 mM stock dissolved in DMSO was serially diluted 1/100 or 1/10 with media, and the compounds were treated to the cells at a final concentration of 0.01, 0.1, 1 μM or 0.001, 0.01, 0.1 μM, and harvested after 24 hours. For the negative control group, DMSO diluted 1/100 or 1/1000 in media was added (3 μL DMSO+297 μL media or 1 μL DMSO+999 μL media).
[Harvest] Each well was pipetted with a 1 mL pipette, collected in a 1.5 mL microtube, and centrifuged (500 g, 5 min, 4° C.). The supernatant was removed, washed with PBS, and centrifuged again (500 g, 5 min, 4° C.). The supernatant was removed and a pellet was prepared.
[Cell lysis and sample preparation] Lysis buffer was prepared as follows. RIPA buffer (Biosesang, RC2038-050-00)+0.5 mM PMSF (SIGMA, P7626)+1× Protease/Phosphatase Inhibitor (Cell signaling, 5872S) were added at 50 μL per tube and incubated on ice for 30 minutes (vortexed at 0 and 30 minutes). After sonication (10 sec pulse, 30 sec rest, 5 cycles, 70% amplification) and centrifugation (15,000 g, 15 min, 4° C.), only the supernatant was transferred to a microtube. RIPA buffer 7.5 μL and sample 2.5 μL were added to a 96-well plate to dilute to 1/4, and then BCA Protein Assay Kit (iNtRON, 21071) A and B were mixed in a 50:1 ratio and 200 μL each was added. After that, the plate was incubated at 37° C. for 30 minutes and left at room temperature for 10 minutes. After shaking for 10 seconds with a SYNERGY H1 microplate reader from BioTek, the absorbance was measured at 562 nm. The protein was quantified using the measured value to prepare a sample, which was then incubated at 70° C. for 10 minutes. The sample buffer used at this time is a mixture of NuPAGE or Bolt 4× sample buffer (Invitrogen) and each 10× sample reducing agent according to the gel to be used, and RIPA buffer was used for protein dilution.
[Western blotting detection] Equal amounts of samples were loaded onto NuPAGE or Bolt Bis-tris 4-12% gradient gels and run (200 V, 35 min). This was transferred to […] NC membranes using Trans-blot Turbo (BIO-RAD) (1.3 A constant, 25 V limit, 15 min), and was blocked at room temperature for 1 hour with Skim milk or Intercept Blocking Buffer (LI-COR, 927-60001):0.1% TBST=1:1. Anti-SHPTP2 Mouse (1:500 in 2% BSA/0.2% TBST, size: 70 kDa, Santacruz sc-7384) was incubated overnight at 4° C., and Anti-GAPDH Rabbit (1:2,000 in 2% BSA/0.2% TBST, size: 37 kDa, CST #2118) was incubated at room temperature for 1.5 hours or 3 hours. After washing three times for 5 minutes each with 0.2% TBST washing buffer, secondary antibodies Anti-Mouse IgG (1:5,000 in 2% BSA/0.2% TBST, CST) and IRDye® 680RD Goat anti-Rabbit IgG Secondary Antibody (1:10,000 in 2% BSA/0.2% TBST, LI-COR 926-68071) were added, and incubated on a rocker at room temperature for 45 minutes. The resultants were washed five times for 5 minutes each with 0.2% TBST washing buffer, and detected using LI-COR's Odyssey. GAPDH was detected with a 700 nm channel, and SHPTP2 was detected using SuperSignal West Pico PLUS Chemiluminescent Substrate.
For orientation: In western blotting, separated proteins are transferred to a membrane and probed.

Molecules are shown by their SMILES.

As for `CC(=O)N[C@H](C(=O)N1C[C@H](O)C[C@H]1C(=O)NCc1ccc(-c2scnc2C)cc1O[C@H]1CC[C@H](C(=O)N2CC(Nc3nccc(Sc4cnc(N5CCC(C)(CN)CC5)cn4)c3Cl)C2)CC1)C(C)(C)C` [Example 38, (2S,4R)-1-((S)-2-acetamido-3,3-dimethylbutanoyl)-N-(2-(((1R,4S)-4-(3-((4-((5-(4-(aminomethyl)-4-methylpiperidin-1-yl)pyrazin-2-yl)thio)-3-chloropyridin-2-yl)amino)azetidine-1-carbonyl)cyclohexyl)oxy)-4-(4-methylthiazol-5-yl)benzyl)-4-hydroxypyrrolidine-2-carboxamide], the SHP2% degradation reads like this: (0.01 μM) 97.7%; (0.1 μM) 99.5%.

Turning to `Cc1ncsc1-c1ccc(CNC(=O)[C@@H]2C[C@@H](O)CN2C(=O)[C@@H](NC(=O)C2(F)CC2)C(C)(C)C)c(OCCC2CCN(C(=O)C3CN(c4nccc(Sc5cnc(N6CCC(C)(CN)CC6)cn5)c4Cl)C3)CC2)c1` [Example 55, (2S,4R)—N-(2-(2-(1-(1-(4-((5-(4-(aminomethyl)-4-methylpiperidin-1-yl)pyrazin-2-yl)thio)-3-chloropyridin-2-yl)azetidine-3-carbonyl)piperidin-4-yl)ethoxy)-4-(4-methylthiazol-5-yl)benzyl)-1-((S)-2-(1-fluorocyclopropane-1-carboxamido)-3,3-dimethylbutanoyl)-4-hydroxypyrrolidine-2-carboxamide], the SHP2% degradation by setting is: (0.01 μM) 27.5%; (0.1 μM) 95.0%.

Turning to `Cc1ncsc1-c1ccc(CNC(=O)[C@@H]2C[C@@H](O)CN2C(=O)[C@@H](NC(=O)C2(F)CC2)C(C)(C)C)c(OCCN2CCC(C(=O)N3CC(Nc4cccc(Sc5cnc(N6CCC(C)(CN)CC6)cn5)c4Cl)C3)CC2)c1` [Example 50, (2S,4R)—N-(2-(2-(4-(3-((3-((5-(4-(aminomethyl)-4-methylpiperidin-1-yl)pyrazin-2-yl)thio)-2-chlorophenyl)amino)azetidine-1-carbonyl)piperidin-1-yl)ethoxy)-4-(4-methylthiazol-5-yl)benzyl)-1-((S)-2-(1-fluorocyclopropane-1-carboxamido)-3,3-dimethylbutanoyl)-4-hydroxypyrrolidine-2-carboxamide], the SHP2% degradation runs as follows: (0.01 μM) 67.3%; (0.1 μM) 97.6%.

On to `Cc1ncsc1-c1ccc(CNC(=O)[C@@H]2C[C@@H](O)CN2C(=O)[C@@H](NC(=O)C2(F)CC2)C(C)(C)C)c(OCCN2CCN(C(=O)C3CCN(c4nccc(Sc5cnc(N6CCC(C)(CN)CC6)cn5)c4Cl)CC3)CC2)c1` [Example 54, (2S,4R)—N-(2-(2-(4-(1-(4-((5-(4-(aminomethyl)-4-methylpiperidin-1-yl)pyrazin-2-yl)thio)-3-chloropyridin-2-yl)piperidine-4-carbonyl)piperazin-1-yl)ethoxy)-4-(4-methylthiazol-5-yl)benzyl)-1-((S)-2-(1-fluorocyclopropane-1-carboxamido)-3,3-dimethylbutanoyl)-4-hydroxypyrrolidine-2-carboxamide], for which the SHP2% degradation is, setting by setting: (0.01 μM) 69.4%; (0.1 μM) 99.3%.

Consider `CC(=O)N[C@H](C(=O)N1C[C@H](O)C[C@H]1C(=O)NCc1ccc(-c2scnc2C)cc1O[C@H]1CC[C@H](C(=O)N2CC(Nc3cccc(Sc4cnc(N5CCC(C)(CN)CC5)cn4)c3Cl)C2)CC1)C(C)(C)C` [Example 27, (2S,4R)-1-((S)-2-acetamido-3,3-dimethylbutanoyl)-N-(2-(((1R,4S)-4-(3-((3-((5-(4-(aminomethyl)-4-methylpiperidin-1-yl)pyrazin-2-yl)thio)-2-chlorophenyl)amino)azetidine-1-carbonyl)cyclohexyl)oxy)-4-(4-methylthiazol-5-yl)benzyl)-4-hydroxypyrrolidine-2-carboxamide], for which the SHP2% degradation (0.01 μM) was 95.8% and the SHP2% degradation (0.1 μM) was determined as 99.9%.

`Cc1ncsc1-c1ccc(CNC(=O)[C@@H]2C[C@@H](O)CN2C(=O)[C@@H](NC(=O)C2(F)CC2)C(C)(C)C)c(O[C@H]2CC[C@H](CN3CC(Nc4cccc(Sc5cnc(N6CCC(C)(CN)CC6)cn5)c4Cl)C3)CC2)c1` [Example 5, (2S,4R)—N-(2-(((1R,4S)-4-((3-((3-((5-(4-(aminomethyl)-4-methylpiperidin-1-yl)pyrazin-2-yl)thio)-2-chlorophenyl)amino)azetidin-1-yl)methyl)cyclohexyl)oxy)-4-(4-methylthiazol-5-yl)benzyl)-1-((S)-2-(1-fluorocyclopropane-1-carboxamido)-3,3-dimethylbutanoyl)-4-hydroxypyrrolidine-2-carboxamide]: the SHP2% degradation (0.01 μM) was determined as 22.3% and the SHP2% degradation (0.1 μM) was 62.0%.

In the case of `CC(=O)N[C@H](C(=O)N1C[C@H](O)C[C@H]1C(=O)NCc1ccc(-c2scnc2C)cc1O[C@H]1CC[C@H](C(=O)N2CC(Nc3cccc(Sc4cnc(N5CCC6(CC5)CO[C@@H](C)[C@H]6N)cn4)c3Cl)C2)CC1)C(C)(C)C` [Example 29, (2S,4R)-1-((S)-2-acetamido-3,3-dimethylbutanoyl)-N-(2-(((1r,4S)-4-(3-((3-((5-((3S,4S)-4-amino-3-methyl-2-oxa-8-azaspiro[4.5]decan-8-yl)pyrazin-2-yl)thio)-2-chlorophenyl)amino)azetidine-1-carbonyl)cyclohexyl)oxy)-4-(4-methylthiazol-5-yl)benzyl)-4-hydroxypyrrolidine-2-carboxamide], the SHP2% degradation amounted to 97.2% (0.01 μM) and 99.9% (0.1 μM).

Turning to `Cc1ncsc1-c1ccc(CNC(=O)[C@@H]2C[C@@H](O)CN2C(=O)[C@@H](NC(=O)C2(F)CC2)C(C)(C)C)c(OC2CCN(C(=O)CC3CCN(c4nccc(Sc5cnc(N6CCC(C)(CN)CC6)cn5)c4Cl)CC3)CC2)c1` [Example 71, (2S,4R)—N-(2-((1-(2-(1-(4-((5-(4-(aminomethyl)-4-methylpiperidin-1-yl)pyrazin-2-yl)thio)-3-chloropyridin-2-yl)piperidin-4-yl)acetyl)piperidin-4-yl)oxy)-4-(4-methylthiazol-5-yl)benzyl)-1-((S)-2-(1-fluorocyclopropane-1-carboxamido)-3,3-dimethylbutanoyl)-4-hydroxypyrrolidine-2-carboxamide], the SHP2% degradation (0.01 μM) is recorded as 60.0% and the SHP2% degradation (0.1 μM) is given as 99.4%.
